Assays:
[1] = FSGS model: urine protein and renal function (BUN, Cr); type: in vivo, BALB/c mice; conditions: FSGS mice
Protocol: Experiments described herein were performed on 8-week-old female BALB/c mice. The FSGS mice were injected intravenously with a single dose of adriamycin (0.1 mg/10 g body weight). The mice were given Compound 1 six hours before adriamycin injection by gavage daily till sacrifice. BALB/c mice intraperitoneal injected with normal saline were used as normal controls, while ASLN mice given vehicle (corn oil) by gavage were used as disease controls. Mice were killed at day 7, 14, or 21 after disease induction, and spleen, renal cortical tissue, and blood samples collected and stored appropriately until analysis. All animal experiments were performed with the ethical approval of the Institutional Animal Care and Use Committee of The National Defense Medical Center, Taiwan and performed according to the ethical rules in the NIH Guide for the Care and Use of Laboratory Animals.
Urine samples were collected in metabolic cages at day 3, 7, 14, and 21, and urine protein was determined as described previously. (Shui, et al., Nephrol Dial Transplant, 21: 1794-1802, 2006) Serum samples were collected at day 7, 14, or 21 when mice were sacrificed to measure serum levels of BUN and Cr.

[2] = AcP-IgAN model: urine protein and renal function (BUN, Cr); type: in vivo, B cell-deficient mice; conditions: AcP-IgAN mice
Protocol: (§1) B cell-deficient mice (B6.129S2-Igh-6tm1Cgn/J) were obtained from the Academia Sinica (Professor John T. Kung, Institute of Molecular Biology), and maintained at the animal center of the National Defense Medical Center, Taipei, Taiwan. AcP-IgAN was induced in the mice by daily injection of purified IgA anti-phosphorylcholine antibodies and pneumococcal C-polysaccharide (PnC) as described previously (Chao, et al., Kidney Int. 70:283-297; 2006). All animal experiments were performed with the approval of the Institutional Animal Care and Use Committee of The National Defense Medical Center, Taiwan, and were consistent with the NIH Guide for the Care and Use of Laboratory Animals.
(§2) Body weight of the mice was measured weekly. Urine samples were collected in metabolic cages weekly, and urine protein determined followed the know methods (Chao, et al., Kidney Int. 70:283-297; 2006). Serum samples were collected at day 3 and day 28 to measure serum levels of blood urea nitrogen (BUN) and creatinine (Cr).

[3] = AcP-IgAN model: body weight and general condition; type: in vivo, B cell-deficient mice; conditions: AcP-IgAN mice, 50 mg/kg, up to day 28
Protocol: as §1, §2

[4] = system: Col-IV; experiment: AcP-IgAN model: renal Col-IV mRNA and protein; type: in vivo, B cell-deficient mice; conditions: AcP-IgAN mice
Protocol: as §1
For IHC, formalin fixed and paraffin embedded tissue sections or frozen sections were incubated with against IL-6 (R&D Systems, MN), MCP-1 (Santa Cruz, Calif.), F4/80 (monocytes/macrophages; Serotec, N.C.), collagen IV (Southern Biotech, AL), TGF-β1 (Santa Cruz), phopsho-NFκB p65 (Cell Signaling, MA), CD3 (pan-T cell; Serotec), CD4 (T helper cell; BioLegend, CA), CD8 (cytotoxic T cell), CD11b (macrophages/neutrophils), or CD11c (dendritic cells) (BD Biosciences, CA) antibodies. The FITC-conjugated, Alexa Fluor 488-conjugated (Invitrogen, CA) or horseradish peroxidase (HRP) conjugated secondary antibodies (DAKO, Denmark) were then applied to the sections. Hematoxylin or 4′,6-diamidino-2-phenylindole (DAKO) was used in the counter staining for nuclei.
Total cortical kidney RNA was extracted with TriZOL reagents (Invitrogen) from cortical tissue of the kidney. For first-strand cDNA synthesis, 1.5 μg of total RNA was used in a single-round reverse transcriptase reaction. The reaction mixture consisted of 0.9 μl of Oligo (dT) 12 to 18 primer, 1.0 mM deoxyribonucleotide triphosphate (dNTP), 1 μl first strand buffer, 0.4 mM dithiothreitol, 80 U of RNaseout recombinant ribonuclease inhibitor, and 300 U of superscript II RNase H (Invitrogen). Real-time PCR was performed on an ABI Prism 7700 Sequence Detection System (Applied Biosystems, CA). […]

[5] = system: splenocytes; experiment: AcP-IgAN model: T cell proliferation analysis (thymidine uptake); type: in vivo, B cell-deficient mice
Protocol: as §1
Splenocytes from the mice were prepared as described as above, then were cultured in triplicate in wells (5×10^5 cells in 200 μl/well) in 96-well flat-bottomed microtiter plates previously coated overnight at 4° C. with 0.25 μg/ml of anti-mouse CD3 antibody (BD Biosciences). After 48 hr, the cultures were pulsed with 1 μCi of 3H-methyl thymidine (Amersham Pharmacia Biotech, NJ), harvested 16 hr later, and the incorporated 3H-methyl thymidine measured using a TopCount (Packard, PerkinElmer, MA).

[6] = 50 mg/kg by gavage daily, day 14 to day 21, vs control FSGS mice
[7] = day 7, among normal control, control FSGS and FSGS+Antroq mice
[8] = day 3, between control AcP-IgAN, AcP-IgAN+Antroq and normal control mice
[9] = day 28, vs control AcP-IgAN mice

For `COC1=C(OC)[C@H](O)[C@H](C/C=C(\C)CC/C=C(\C)CCC=C(C)C)[C@@H](C)C1=O` [Compound 1, Antroquinonol], the urine protein levels ([1]; 50 mg/kg by gavage daily, day 7 to day 21, vs control FSGS mice (vehicle)) was “greatly suppressed”, the “serum levels of blood urea nitrogen (BUN)” value [1, 6] was “much better renal function” and the “serum levels of creatinine (Cr)” value [1, 6] was “much better renal function”. The “serum levels of BUN” value [1, 7] was “no significant difference”, the “serum levels of Cr” value [1, 7] was “no significant difference” and the urine protein levels ([2]; 50 mg/kg, day 7 to day 28, vs control AcP-IgAN mice (vehicle)) was “greatly suppressed”. For the same compound, the proteinuria ([2]; compared to normal controls) was “mild proteinuria”, the “serum levels of BUN” value [2, 8] was “no significant difference” and the “serum levels of Cr” value [2, 8] was “no significant difference”. The “serum levels of BUN” value [2, 9] was “much better renal function”, the “serum levels of creatinine” value [2, 9] was “much better renal function” and the “activity, hair loss, appetite” value [3] was “normal activity and no evidence of hair loss or appetite change”. For the same compound, the “growth (body weight recorded every week)” value [3] was “no different from that of normal controls”, the “renal mRNA levels of Col-IV” value ([4]; day 3) was “basal mRNA levels” and the “Col-IV protein levels in kidney (IHC)” value [4, 9] was “substantially inhibited”. The “renal mRNA expression of Col-IV” value [4, 9] was “greatly inhibited”, the “proliferation of CD3^+ T cell in splenocytes (thymidine uptake)” value ([5]; AcP-IgAN mice, day 28) was “near baseline levels of proliferation” and the “proliferation of CD3^+ T cell in splenocytes (thymidine uptake)” value ([5]; day 3, worded as control AcP-IgAN mice relative to AcP-IgAN+Antroq mice) was “greatly increased proliferation of CD3^+ T cell in splenocytes compared to that of AcP-IgAN+Antroq mice”.

From patent US10406120B2, “Methods and compositions for treating kidney disorders” (Golden Biotechnology Corporation, priority 2013, dated 2019)
